Source: US20180049996A1, “THERAPEUTIC AGENT FOR CHRONIC RESPIRATORY DISEASE AND COMPOSITION FOR INHIBITING CARDIAC FIBROSIS” (NIPPON HYPOX LABORATORIES INCORPORATED, priority 2015, published 2018)

Assays:
[1] = test system: Lung Inflammation Induced by Tobacco Smoke; test: Histopathologic examination of lungs, COPD model; assay type: in vivo, C57BL/6N mice; conditions: HTHQ 10 and 20 mg/kg/day oral; tobacco smoke 10 days + LPS; compared to COPD model group
Description: 6 week old male SPF C57BL/6N mice, 20 to 25 g of body weight, were purchased from CORETEC INC. (South Korea).
The tests were conducted as follows. The mice in the COPD (chronic obstructive pulmonary disease) model group of the test groups were exposed to tobacco smoke for 1 hour per day (8 cigarettes/day) for 10 days and LPS (5 μg/50 μL/mouse) was intranasally administered to the mice on day 8 after the start of the tests. Roflumilast, the positive control substance, was orally administered to the mice in the positive control substance-administered group at 10 mg/kg body weight/day, and then they were exposed to tobacco smoke for 10 days starting from 1 hour after the administration of roflumilast, and LPS (5 μg/50 μL/mouse) was intranasally administered to the mice on day 8 after the start of the tests. Here, roflumilast is a selective phosphodiesterase 4 inhibitor and is a substance which is used as a therapeutic agent of COPD and asthma (approved in Europe and the United States, not approved in Japan). […] All the animals were euthanized on day 11 and bronchoalveolar lavage (BAL) examination and histopathologic examination of lungs were conducted. The mice in the normal control group and the test groups were fed sterile tap water and standard food for rodents during the test period. […]

[2] = test system: allergic asthma model of mice caused by ovalbumin sensitization; test: BAL inflammatory cell numbers, allergic asthma model caused by ovalbumin sensitization; assay type: in vivo, BALB/c female mice; conditions: HTHQ 20 and 40 mg/kg/day oral, days 18 to 23; day 25; compared to OVA group
Description: The efficacy of the hydroquinone derivative represented by the general formula (1) described above of the present invention on asthma was studied using an allergic asthma model of mice caused by ovalbumin sensitization.
(§1) 6 week old BALB/c female mice were purchased and the mice were divided into 5 groups with 5 animals per group shown in Table 3 below after habituation breeding of about 2 weeks.
(§2) The test was conducted on the schedule of sensitization, causing diseases and administration of test materials shown in FIG. 12. “IP” in FIG. 12 refers to ovalbumin sensitization treatment by the intraperitoneal administration of ovalbumin/aluminum hydroxide, and “IH” refers to inhalation exposure treatment of ovalbumin, and “PO” refers to the administration of the test materials. […]
(§3) All mice were euthanized by intraperitoneal injection of pentobarbital (Hanrimu pharmaceutical, South Korea) at 50 mg/kg and the bronchi were excised on day 25 of the test. […] After preparing slide samples from 100 μL of BAL cell fluid using Cytospin (4° C., 1000 rpm×5 min), the cell numbers of inflammatory cells (eosinophils, macrophages, lymphocytes and neutrophils) present in the BAL fluid were counted using a Diff-Quik stain kit.

IL-5 = IL-5 level in BAL fluid (ELISA), ovalbumin asthma model; assay type: in vivo, BALB/c female mice; conditions: HTHQ 20 and 40 mg/kg/day oral; compared to OVA group
Description: as §1, §2, §3
The supernatant of the BAL fluid stored was taken out of the super-cryostat and IL-4, IL-5 and IL-13 levels were measured as the pro-inflammatory cytokine contents in the supernatant of the BAL fluid. A quantitative ELISA kit (a product from R&D systems) and a microplate reader (a product from Bio-Rad Laboratories, Inc.) were used for the measurement and the measurement wavelength was 450 nm.

CCCCCCOc1cc(C)c(O)c(C)c1C [HTHQ, 2,3,5-trimethylhydroquinone-1-hexyl ether]
infiltration of inflammatory cells in peribronchial lung tissue (HE stain) [1]: significantly reduced in a dose-dependent manner
inflammatory cell numbers in BAL fluid (eosinophils, macrophages, total) [2]: significantly reduced in an HTHQ dose-dependent manner
IL-5 content in BAL fluid (IL-5): significantly reduced
